Measurements from paper PMC4785615, “Evidence that phospholipase C is involved in the antitumour action of NSC768313, a new thieno[2,3-b]pyridine derivative” (Cancer Cell International, 2016).

Columns and labels:
breast cancer cells = system: breast cancer cells; set-up: method as in doi:10.1039/C3MD00290J; details: earlier flow cytometry; cited from earlier work
T47D = experiment: Cell proliferation assay (3H-thymidine incorporation, 3 days); assay type: cell-based, human; details: 3 days treatment
Procedure: (§1) Culture conditions have been described in detail previously; human breast cancer cell lines MCF-7, T47D, MDA-MB-468, MDA-MB-231, human epithelial carcinoma cell line A431 and human colon cancer cell line HCT116 were purchased from the American Type Culture Collection (ATCC). Cells were grown in α-MEM containing 5 % fetal calf serum, insulin/transferrin/selenium supplement, added according to the manufacturer’s instructions (Roche), as well as penicillin/streptomycin (100 U/ml and 100 μg/ml, respectively).
(§2) As described in detail previously, cell proliferation was measured using a thymidine incorporation assay by seeding 3000 cells in each well using 96 well plates with varying concentrations of inhibitors for 3 days. Experiments were performed in triplicate with a minimum of two experimental repeats. Briefly, ^3H-thymidine (0.04 µCi) was added to each well and incubated for 5 h, after which the cells were gathered onto glass fibre filters using an automated TomTec harvester. Filters were incubated with Betaplate Scint and thymidine incorporation determined with Trilux/Betaplate counter showing the percentage of cells incorporated with ^3H-thymidine into the DNA helix.

Aqueous solubility = assay type: physicochemical
[1] = Mouse plasma pharmacokinetics; assay type: in vivo; details: ip, male CD-1 mice, 10 mg/Kg intraperitoneal
Procedure: (§3) Male CD-1 mice were obtained from Vernon Jansen Unit (University of Auckland) and housed in cages with a 12-hour light/dark cycle and received sterilized food and water ad libitum. Studies and procedures were conducted with prior approval of the Ethics Committee of the University of Auckland (AEC approval number 1190). Derivative 3 was prepared in 20 % HP-β CD as a fine yellow suspension, and administered (at 10 mg/Kg) as intraperitoneal bolus injection. Blood samples were collected via a terminal cardiac bleeding (n = 3 mice/time) at 0.167, 0.5, 1, 2 and 6 h post dose. Blood was collected in ice cold K2-EDTA tubes and kept on ice. All samples were centrifuged at 6500 rpm for 5 min at room temperature, obtained plasma were stored at −80 °C until analysed by LC–MS/MS.
Briefly, plasma samples were assayed for derivative 3 using liquid chromatography-tandem mass spectrometry (LC–MS/MS) method. Briefly, derivative 3 was spiked in the drug mouse plasma to obtain a concentration 0.003, 0.03, 0.3, 3, 10 and 30 µM to construct a calibration curve. Derivative 1 (a structural analogue of 3) was used as an internal standard in LC–MS/MS assay at a concentration of 0.5 μM added to acetonitrile. Drug was extracted from plasma using direct protein precipitation with ice cold acetonitrile (1:4 v/v) and quantified by peak area ratio of 3 versus 1 using a calibration curve prepared with derivative 3 as outlined above. LC–MS/MS used was Agilent 6410b with multimode ion source operated in atmospheric pressure chemical ionization (APCI) positive mode attached to an Agilent 1200 series HPLC system. LC–MS/MS used an Agilent Zorbax SB-C18 column (2.1 × 50 mm, 5 µM, USA) operated at 35 °C, at a flow rate 0.5 mL/min with a gradient consisting of 0.01 % formic acid in MilliQ water (Millipore, USA) and 0.01 % formic acid in 80 % acetonitrile-20 % MilliQ water. The MS1 and MS2 were operated at unit resolution in the multiple reaction monitoring (MRM) mode, monitoring the transition of the protonated molecular ions at m/z 368 to the product ions at m/z 245 for derivative 3 and monitoring the transition of the protonated molecular ions at m/z 372 to the product ions at m/z 245 for derivative 1 (internal standard). […] The lower limit of quantification for derivative 3 in plasma was 0.003 μM.
Mean mouse plasma-time data for derivative 3 was analysed with non-compartmental method using Phoenix WinNonlin 6.2 (Pharsight Corporation, Mountain View, CA) as shown in Table 1.

A431 cells = experiment: Calcium flux assay (EGF-induced, Fluo-4); assay type: cell-based, human; details: pre-treatment at 25 and 50 μM, EGF 400 ng/ml
Procedure: A431 cells were plated onto 96 wells until confluent. Cells were loaded with 5 µM Fluo-4 acetoxymethyl ester with 0.003 % pluronic acid and 2.5 mM Probenecid (Molecular Probes) for 30 min at 37 °C, then washed with buffer and incubated for another 30 min. Epidermal growth factor (EGF) (400 ng/ml) was used as an activator. EGF alone or with derivative 3 were added to A431 cells to determine the inhibitory activity on calcium flux of derivative 3, and compared with buffer (negative control) and 1 µg/ml ionomycin (positive control). Fluorescence signal was recorded from the bottom of the plate at 1 s intervals (3 wells per/s) using an EnSpire 2300 Multimode Plate Reader (Perkin-Elmer) at excitation wavelength of 494 nm and emission wavelength of 506 nm (25 °C, 3 mm measurement height, 50 flashes). Baseline fluorescence was recorded for 10 s, after which buffer alone, EGF alone or with drug, was added and fluorescence was captured for a further 45 s. Next, ionomycin was added and fluorescence was recorded for another 45 s. Three independent experiments were performed.

[2] = system: MDA-MB-231 breast cancer cells; experiment: Microtubule imaging (anti-tubulin and Hoechst staining); assay type: cell-based, human; details: MDA-MB-231, 16 h; for Microtubule arrangement: FITC anti-tubulin staining
Procedure: Cells were grown on a glass slide with and without inhibitors, fixed by 4 % paraformaldehyde, permeabilised by 0.5 % Triton X-PBS and incubated with 5 % BSA/PBS containing FITC-labelled anti-tubulin antibody. Microtubule arrangement was monitored by fluorescence staining of microtubules using anti-tubulin and analysed by fluorescent microscopy using Floid imaging station (460× magnification). Nucleus was stained with 2 μg/ml Hoechst stain (Life Technology) for 10 min at room temperature. Hoechst stain emits blue fluorescence when bound to double strand DNA.

[3] = Tolerability in mice after intraperitoneal injection; assay type: in vivo; details: 10 mg/Kg intraperitoneal injection, 20 % HP-β CD
Procedure: as §3
Derivative 3 was chosen for a small pharmacokinetic study.

[4] = system: MDA-MB-231 breast cancer cells; experiment: DNA damage by γH2AX (flow cytometry, immunoblot); assay type: cell-based, human; details: MDA-MB-231, 1 μM, 24 h; for Proportion of cells with high γ-H2AX phosphorylation: basal level 1 %
Procedure: (§4) As described in detail previously, cells (10^6 cells per well) were grown in 6 well plates and incubated with inhibitors for the indicated time. Cells were harvested, washed and resuspended in 1 ml of blocking buffer (1 % FCS/PBS), and incubated with antibody to γ-H2AX (phosphorylated Ser139) (Millipore, USA) in blocking buffer (1:500 dilution) at room temperature for 2 h. Cells were washed, incubated with goat anti-mouse Alex 488 Fab fragment secondary antibody (Invitrogen, New Zealand) (1:400 in blocking buffer for 1 h, at room temperature; dark), washed and resuspended in 1 ml of blocking buffer containing RNase (1 μg/ml) and propidium iodide (PI) (10 μg/ml) for 30 min at room temperature. Cells were analysed in a Becton–Dickinson LSRII and profiles were analysed with ModFit LT 3 software.
As described in detail previously cells were grown to log-phase, washed twice with ice-cold PBS, and lysed in SDS lysis buffer according to the manufacturer’s protocol (Cell Signalling Technology, Danvers, MA, USA). Protein concentration was quantified using the BCA protein assay reagent bicinchoninic acid (Sigma, New Zealand). Cell lysates containing 25 μg of protein were separated by SDS-PAGE and transferred to PVDF membranes (Millipore). Membranes were immunoblotted with antibodies against to γ-H2AX (phosphorylated Ser139) (Millipore, USA), and actin (Millipore), using SuperSignalWest Pico (Thermo Scientific, Waltham,MA, USA) chemiluminescence reagents. Antibody reactivity was visualized using the chemiluminescence detection system by Fujifilm Las-3000.

MDA-MB-231 [5] = experiment: Cell proliferation assay (3H-thymidine incorporation, 3 days); assay type: cell-based; details: Homo sapiens, 72 h; MDA-MB-231, thymidine incorporation, 3 days treatment; read-out: IC50 (50 % inhibition of growth)
Procedure: as §1, §2

MDA-MB-468 = experiment: as above; assay type: cell-based; details: Homo sapiens, 72 h; MDA-MB-468, thymidine incorporation, 3 days treatment; read-out: IC50 (50 % inhibition of growth)
Procedure: as §1, §2

MCF7 = experiment: as above; assay type: cell-based; details: Homo sapiens, 72 h, 3 days treatment, read-out: IC50 (50 % inhibition of growth)
Procedure: as §1, §2

[6] = system: MDA-MB-231 breast cancer cells; experiment: Cell cycle distribution by flow cytometry; assay type: cell-based, human; details: MDA-MB-231, 1 μM, 24 h
Procedure: as §4

MDA-MB-231 [7] = experiment: Combination growth inhibition with cytotoxic drugs (Bliss model); assay type: cell-based, human
Procedure: as §2
(§5) As described previously for everolimus and other inhibitors, we employed the Bliss additivism model to classify the drug combinations as additive, synergistic or antagonistic. A theoretical curve was calculated for combined inhibition using the equation Ebliss = (EA + EB) − (EA × EB), where EA and EB are the fractional inhibitions obtained by drug A alone and drug B alone at specific concentrations. Ebliss is the fractional inhibition that would be expected if the effects of the two drugs were additive. The difference (Bliss) in the experimentally measured fractional inhibition (Expt) and Ebliss are defined as synergism […], additive (Expt = Ebliss), and antagonism […]. Bliss = 0 would indicate the combination is additive; Bliss > 0 would indicate the percentage increase in maximal inhibition above additivity (synergy); and Bliss < 0 would indicate the percentage decrease in maximal inhibition below additivity (antagonism). The data were analysed using a one-way ANOVA coupled with multiple comparisons versus treatment control applying the Holm-Sidak method correction, where p < 0.05 denotes a statistically significant difference.

HCT116 = experiment: as above; assay type: cell-based, human; details: HCT116, derivative 3 50 nM plus paclitaxel
Procedure: as §2, §5

**Q.** Which Cell cycle effect (breast cancer cells) does the source give for `Nc1c(C(=O)Nc2cccc(Cl)c2)sc2nc3c(cc12)C(=O)CCC3` [derivative 1] here?
**A.** caused G2/M arrest

**Q.** With `Nc1c(C(=O)Nc2cccc3ccccc23)sc2nc3c(cc12)C(=O)CCC3` [derivative 5] as the molecule, how does the “IC50 (50 % inhibition of growth)” value (T47D) read?
**A.** not reached

**Q.** For `COc1cccc(NC(=O)c2sc3nc4c(cc3c2N)C(=O)CCC4)c1` [derivative 3], which Aqueous solubility (Aqueous solubility) is on record?
**A.** poor

**Q.** What about the half-life ([1]; male, CD-1, mouse, 10 mg/kg, read-out: t1/2 (elimination half-life)) of the same molecule?
**A.** > 240 min

**Q.** And the k el ([1]; mouse, 20 % HP-β CD suspension, read-out: Ke (elimination rate constant) (converted))?
**A.** 4.72e-06 s⁻¹

**Q.** What about the AUC(0-inf) ([1]; mouse, extrapolated to infinity) of the same molecule?
**A.** 0.19 µM·h

**Q.** What about the Tmax ([1]; mouse, post injection, read-out: Time of maximal plasma concentration (converted)) of the same molecule?
**A.** 30 min

**Q.** And the Cmax ([1]; mouse, read-out: Cmax (maximum concentration in plasma))?
**A.** 87 nM

**Q.** And the AUC(0-t) ([1]; mouse, up to 6 h, read-out: AUC0–6 h)?
**A.** 0.13 µM·h

**Q.** And the “Effect on increase in intracellular calcium levels induced by EGF” value (A431 cells)?
**A.** no effect

**Q.** What about the Cell morphology [2] of the same molecule?
**A.** membrane blebbing

**Q.** What about the Microtubule arrangement [2] of the same molecule?
**A.** No microtubule bundles were observed

**Q.** What about the Nuclear phenotype ([2]; Hoechst staining) of the same molecule?
**A.** abnormal nuclear phenotype and possessed multinuclear cells

**Q.** What about the Tolerability [3] of the same molecule?
**A.** well tolerated with no acute reaction observed

**Q.** What about the “DNA damage (γH2AX)” value [4] of the same molecule?
**A.** did not initiate DNA damage

**Q.** And the “Proportion of cells with high γ-H2AX phosphorylation” value [4]?
**A.** 4%

**Q.** And the IC50 (MDA-MB-231 [5])?
**A.** < 100 nM

**Q.** And the IC50 (MDA-MB-468)?
**A.** < 100 nM

**Q.** What about the IC50 (MCF7) of the same molecule?
**A.** < 100 nM

**Q.** What about the Cell cycle effect [6] of the same molecule?
**A.** induce G2/M phase cell cycle arrest

**Q.** And the “Drug interaction with camptothecin (Bliss)” value (MDA-MB-231 [7]; MDA-MB-231, derivative 3 50 nM plus camptothecin)?
**A.** only additive effects

**Q.** What about the “Drug interaction with doxorubicin (Bliss)” value (MDA-MB-231 [7]; MDA-MB-231, derivative 3 50 nM plus doxorubicin) of the same molecule?
**A.** only additive effects

**Q.** What about the “Drug interaction with paclitaxel (Bliss)” value (MDA-MB-231 [7]; MDA-MB-231, derivative 3 50 nM plus paclitaxel) of the same molecule?
**A.** synergistic effect

**Q.** And the “Drug interaction with paclitaxel (Bliss)” value (HCT116)?
**A.** Synergism

**Q.** Which “Proportion of cells with high γ-H2AX phosphorylation” value [4] does the source give for `CC[C@@]1(O)C(=O)OCc2c1cc1n(c2=O)Cc2cc3ccccc3nc2-1` [camptothecin, reference compound] here?
**A.** 69%

**Q.** For `CC(=O)O[C@H]1C(=O)[C@@]2(C)[C@H]([C@H](OC(=O)c3ccccc3)[C@]3(O)C[C@H](OC(=O)[C@H](O)[C@@H](NC(=O)c4ccccc4)c4ccccc4)C(C)=C1C3(C)C)[C@]1(OC(C)=O)CO[C@@H]1C[C@@H]2O` [paclitaxel, reference compound], which Microtubule arrangement [2] is on record?
**A.** shortened and bundling of microtubules
